These results are taken from patent publication US9179678B2, “Substituted [1,2,4]triazoles and substituted tetrazoles as herbicides” (SYNGENTA LIMITED, priority 2012, dated 2015).

Format in all cases: in vivo
The subject of experiment [1] is Alopecurus myosuroides (ALOMY). As to the kind of experiment: Pre-emergence glasshouse herbicide test. The following applies: PRE Application, 1000 g/h, after 13 days. The gist of the method: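 This pre-emergence glasshouse test used pots of standard soil sown with ALOMY seed and cultivated for one day under controlled conditions of 24/16° C., 14 hours light and 65% humidity. An aqueous spray from an acetone/water (50:50) formulation with 0.5% Tween 20 was applied. After 13 days of further growth with twice-daily watering, plant damage was rated as a percentage.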

Experiment [2] relates to Solanum nigrum (SOLNI). As to the kind of experiment: Pre-emergence glasshouse herbicide test. The following applies: PRE Application, 1000 g/h, after 13 days.
For experiment [3], the system named is Ipomoea hederacea (IPOHE). As to the kind of experiment: Pre-emergence glasshouse herbicide test. The following applies: PRE Application, 1000 g/h, after 13 days.
Experiment [4] concerns Setaria faberi (SETFA). As to the kind of experiment: Pre-emergence glasshouse herbicide test. The following applies: PRE Application, 1000 g/h, after 13 days.
The subject of experiment [5] is Amaranthus retoflexus (AMARE). As to the kind of experiment: Pre-emergence glasshouse herbicide test. The following applies: PRE Application, 1000 g/h, after 13 days.
The test system of experiment [6] is Echinochloa crus-galli (ECHCG). As to the kind of experiment: Pre-emergence glasshouse herbicide test. Conditions: PRE Application, 1000 g/h, after 13 days.
In experiment [7] the test system is Alopecurus myosuroides (ALOMY). As to the kind of experiment: Post-emergence glasshouse herbicide test. Conditions: POST Application, 1000 g/h, after 13 days. The gist of the method: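 In this glasshouse post-emergence test, ALOMY plants were cultivated in standard soil for 8 days under controlled conditions (24/16° C. day/night, 14 hours light, 65% humidity). They were then treated with a spray derived from an acetone/water (50:50) formulation with 0.5% Tween 20, grown on with watering twice daily, and rated for percentage damage after 13 days.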

For experiment [8], the system named is Solanum nigrum (SOLNI). As to the kind of experiment: Post-emergence glasshouse herbicide test. The following applies: POST Application, 1000 g/h, after 13 days. The gist of the method:
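This glasshouse post-emergence herbicide test used Solanum nigrum plants sown in standard soil and cultivated for 8 days under controlled conditions (24/16° C. day/night, 14 hours light, 65% humidity). An aqueous spray from an acetone/water (50:50) solution with 0.5% Tween 20 was applied. Plants were watered twice daily, and damage to each plant was assessed as a percentage 13 days later.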

The test system of experiment [9] is Ipomoea hederacea (IPOHE). As to the kind of experiment: Post-emergence glasshouse herbicide test. Conditions: POST Application, 1000 g/h, after 13 days.
The subject of experiment [10] is Amaranthus retoflexus (AMARE). As to the kind of experiment: Post-emergence glasshouse herbicide test. Conditions: POST Application, 1000 g/h, after 13 days.
Experiment [11] relates to Echinochloa crus-galli (ECHCG). As to the kind of experiment: Post-emergence glasshouse herbicide test. Conditions: POST Application, 1000 g/h, after 13 days.
The subject of experiment [12] is Setaria faberi (SETFA). As to the kind of experiment: Post-emergence glasshouse herbicide test. Conditions: POST Application, 1000 g/h, after 13 days. The procedure, abridged:
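This post-emergence glasshouse herbicide test used SETFA plants raised in pots of standard soil for 8 days under controlled conditions (24/16° C., 14 hours light, 65% humidity). An aqueous spray made from acetone/water (50:50) with 0.5% Tween 20 was applied. Plants were watered twice daily, and percentage plant damage was assessed 13 days later.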

In the case of `Cn1nnnc1NC(=O)c1nc2ccccc2n(-c2ccc([N+](=O)[O-])cc2)c1=O` [Compound 5.022], the “percentage damage caused to the plant, ALOMY” value in experiment [1] is 3 (3=40-59%); in experiment [7], 2 (2=20-39%). In addition, the “percentage damage caused to the plant, SOLNI” value in the experiment on Solanum nigrum (SOLNI) [2] and with Solanum nigrum (SOLNI) [8] was 5 (5=80-100%) throughout. The “percentage damage caused to the plant, IPOHE” value is reported as 4 (4=60-79%) in experiment [3] and 5 (5=80-100%) in experiment [9]. For the same molecule, the figures for the “percentage damage caused to the plant, SETFA” value with Setaria faberi (SETFA) [4] and in the experiment with Setaria faberi (SETFA) [12] were 5 (5=80-100%) and 4 (4=60-79%), respectively. For the same molecule, the “percentage damage caused to the plant, AMARE” value in experiment [5] and in experiment [10] was 5 (5=80-100%) each time. For the same molecule, the entries for the “percentage damage caused to the plant, ECHCG” value in [6] and in [11] were 5 (5=80-100%) and 4 (4=60-79%), respectively.
As to `Cn1nnnc1NC(=O)c1nc2ccccc2n(-c2cccc(C(F)(F)F)c2)c1=O` [Compound 5.026], the “percentage damage caused to the plant, ALOMY” value in experiment [1] and in experiment [7] was 5 (5=80-100%) throughout. Besides, the “percentage damage caused to the plant, SOLNI” value with Solanum nigrum (SOLNI) [2] and in the experiment with Solanum nigrum (SOLNI) [8] was 5 (5=80-100%) throughout. The “percentage damage caused to the plant, IPOHE” value in experiment [3] and in [9] was 5 (5=80-100%) in each case. Also, the “percentage damage caused to the plant, SETFA” value in the experiment on Setaria faberi (SETFA) [4] and in the experiment on Setaria faberi (SETFA) [12] was 5 (5=80-100%) each time. Further, the “percentage damage caused to the plant, AMARE” value in experiment [5] and in experiment [10] was 5 (5=80-100%) each time. The “percentage damage caused to the plant, ECHCG” value in experiment [6] and in [11] was 5 (5=80-100%) in each case.
Consider `Cn1nnnc1NC(=O)c1nc2ccccc2n(C)c1=O` [Compound 5.002], for which the “percentage damage caused to the plant, ALOMY” value in [1] and in experiment [7] was 1 (1=0-19%) throughout. Besides, the “percentage damage caused to the plant, SOLNI” value in the experiment with Solanum nigrum (SOLNI) [2] and with Solanum nigrum (SOLNI) [8] was 5 (5=80-100%) each time. Moreover, the “percentage damage caused to the plant, IPOHE” value in [3] and in [9] was 5 (5=80-100%) each time. For the same molecule, the “percentage damage caused to the plant, SETFA” value in the experiment on Setaria faberi (SETFA) [4] and with Setaria faberi (SETFA) [12] was 1 (1=0-19%) throughout. Further, the “percentage damage caused to the plant, AMARE” value in [5] and in experiment [10] was 5 (5=80-100%) throughout. Also, the “percentage damage caused to the plant, ECHCG” value is on record as 5 (5=80-100%) in experiment [6] and 4 (4=60-79%) in experiment [11].
For the molecule `Cn1nnnc1NC(=O)c1nc2ccccc2n(-c2ccsc2)c1=O` [Compound 5.005], the “percentage damage caused to the plant, ALOMY” value in experiment [1] and in [7] was 2 (2=20-39%) throughout. In addition, the “percentage damage caused to the plant, SOLNI” value with Solanum nigrum (SOLNI) [2] and in the experiment on Solanum nigrum (SOLNI) [8] was 5 (5=80-100%) in each case. Besides, the “percentage damage caused to the plant, IPOHE” value in experiment [3] and in experiment [9] was 5 (5=80-100%) each time. Besides, the “percentage damage caused to the plant, SETFA” value with Setaria faberi (SETFA) [4] is 3 (3=40-59%); with Setaria faberi (SETFA) [12], 5 (5=80-100%). For the same molecule, the “percentage damage caused to the plant, AMARE” value in [5] and in experiment [10] was 5 (5=80-100%) in each case. Also, the “percentage damage caused to the plant, ECHCG” value in [6] and in experiment [11] was 5 (5=80-100%) in each case.
Turning to `Cn1nnnc1NC(=O)c1nc2ccccc2n(-c2ccc(F)cc2)c1=O` [Compound 5.029], the “percentage damage caused to the plant, ALOMY” value in [1] was 5 (5=80-100%); in [7] it was 4 (4=60-79%). The “percentage damage caused to the plant, SOLNI” value in the experiment with Solanum nigrum (SOLNI) [2] and in the experiment with Solanum nigrum (SOLNI) [8] was 5 (5=80-100%) throughout. Moreover, the “percentage damage caused to the plant, IPOHE” value in [3] and in experiment [9] was 5 (5=80-100%) throughout. The “percentage damage caused to the plant, SETFA” value with Setaria faberi (SETFA) [4] and in the experiment with Setaria faberi (SETFA) [12] was 5 (5=80-100%) in each case. The “percentage damage caused to the plant, AMARE” value in experiment [5] and in experiment [10] was 5 (5=80-100%) each time. Moreover, the “percentage damage caused to the plant, ECHCG” value in experiment [6] and in experiment [11] was 5 (5=80-100%) throughout.
For the molecule `CCn1c(=O)c(C(=O)Nc2nnnn2C)cc2cnccc21` [Compound 2.003], the “percentage damage caused to the plant, ALOMY” value in experiment [1] and in [7] was 1 (1=0-19%) throughout. The figures for the “percentage damage caused to the plant, SOLNI” value with Solanum nigrum (SOLNI) [2] and in the experiment with Solanum nigrum (SOLNI) [8] were 1 (1=0-19%) and 3 (3=40-59%), respectively. Further, the “percentage damage caused to the plant, IPOHE” value is on record as 1 (1=0-19%) in [3] and 2 (2=20-39%) in [9]. Also, the “percentage damage caused to the plant, SETFA” value with Setaria faberi (SETFA) [4] and with Setaria faberi (SETFA) [12] was 1 (1=0-19%) in each case. In addition, the “percentage damage caused to the plant, AMARE” value is reported as 1 (1=0-19%) in experiment [5] and 3 (3=40-59%) in experiment [10]. The “percentage damage caused to the plant, ECHCG” value in experiment [6] and in experiment [11] was 1 (1=0-19%) throughout.
As for `COc1ccc(-n2c(=O)c(C(=O)Nc3nnnn3C)nc3ccccc32)cc1` [Compound 5.009], the entries for the “percentage damage caused to the plant, ALOMY” value in experiment [1] and in experiment [7] were 2 (2=20-39%) and 1 (1=0-19%), respectively. Besides, the “percentage damage caused to the plant, SOLNI” value in the experiment on Solanum nigrum (SOLNI) [2] and in the experiment on Solanum nigrum (SOLNI) [8] was 5 (5=80-100%) in each case. Also, the “percentage damage caused to the plant, IPOHE” value in experiment [3] is 5 (5=80-100%); in experiment [9], 3 (3=40-59%). The “percentage damage caused to the plant, SETFA” value in the experiment with Setaria faberi (SETFA) [4] is on record as 1 (1=0-19%); in the experiment on Setaria faberi (SETFA) [12] it was 2 (2=20-39%). Moreover, the “percentage damage caused to the plant, AMARE” value in experiment [5] and in [10] was 5 (5=80-100%) each time. Moreover, the “percentage damage caused to the plant, ECHCG” value in experiment [6] is 5 (5=80-100%); in [11], 4 (4=60-79%).
For the molecule `Cn1nnnc1NC(=O)c1nc2ccccc2n(-c2cccc(Br)c2)c1=O` [Compound 5.024], the “percentage damage caused to the plant, ALOMY” value in experiment [1] and in [7] was 5 (5=80-100%) throughout. Moreover, the “percentage damage caused to the plant, SOLNI” value in the experiment on Solanum nigrum (SOLNI) [2] and in the experiment on Solanum nigrum (SOLNI) [8] was 5 (5=80-100%) throughout. The “percentage damage caused to the plant, IPOHE” value in experiment [3] is reported as 5 (5=80-100%); in [9], 4 (4=60-79%). Moreover, the “percentage damage caused to the plant, SETFA” value in the experiment on Setaria faberi (SETFA) [4] and with Setaria faberi (SETFA) [12] was 5 (5=80-100%) each time. Besides, the “percentage damage caused to the plant, AMARE” value in [5] and in [10] was 5 (5=80-100%) in each case. The “percentage damage caused to the plant, ECHCG” value in experiment [6] and in [11] was 5 (5=80-100%) throughout.
For the molecule `Cn1nnnc1NC(=O)c1nc2ccccc2n(-c2cccc(C#N)c2)c1=O` [Compound 5.021], the “percentage damage caused to the plant, ALOMY” value in experiment [1] is 5 (5=80-100%); in [7] it was 4 (4=60-79%). Further, the “percentage damage caused to the plant, SOLNI” value in the experiment on Solanum nigrum (SOLNI) [2] and in the experiment on Solanum nigrum (SOLNI) [8] was 5 (5=80-100%) in each case. For the same molecule, the “percentage damage caused to the plant, IPOHE” value in [3] and in experiment [9] was 5 (5=80-100%) in each case. For the same molecule, the “percentage damage caused to the plant, SETFA” value with Setaria faberi (SETFA) [4] and in the experiment with Setaria faberi (SETFA) [12] was 5 (5=80-100%) in each case. Moreover, the “percentage damage caused to the plant, AMARE” value in [5] and in experiment [10] was 5 (5=80-100%) throughout. Also, the “percentage damage caused to the plant, ECHCG” value was 5 (5=80-100%) in experiment [6] and 2 (2=20-39%) in [11].
